Test results reported in patent publication US6680282B2 (priority 1997, dated 2004).

test system: Pyricularia oryzae; test: whole plant or invertebrate; format: in vivo; settings: 100 ppm spray, rice seedling (Jikkoku) 4-leaf stage, lesion number on fourth leaf 6 days after inoculation

SMILES | rank (control effect, protective value from lesion number)
CCOC(=O)Oc1c(C)c(C)nc2ccc(C(C)CC)cc12 (centres unmarked) [compound 66] | A (protective value ≧80%)
CCc1ccc2c(OC(C)=O)c(C)c(C)nc2c1 [compound 183] | B (protective value 50 to 79%)
CCCCc1ccc2nc(C)c(CC)c(OC(C)=O)c2c1 [compound 44] | A (protective value ≧80%)
CCC(C)c1ccc2nc3c(c(OC(C)=O)c2c1)CCC3 (centres unmarked) [Compound No. 153] | B (protective value 50 to 79%)
CCCCCC(=O)Oc1c(C)c(C)nc2ccc(C(C)CC)cc12 (centres unmarked) [compound 173] | A (protective value ≧80%)
CCCCCCc1ccc2nc(C)c(C)c(O)c2c1 [Compound No. 107] | A (protective value ≧80%)
Cc1cc2nc(C)c(C)c(O)c2cc1Br [compound 192] | A (protective value ≧80%)
CCC(C)c1ccc2nc(C)c(C)c(OC(=O)Oc3ccc(Cl)cc3)c2c1 (centres unmarked) [compound 70] | A (protective value ≧80%)
CCC(C)c1ccc2nc(C)c(C)c(OC(=O)Cc3ccccc3)c2c1 (centres unmarked) [compound 172] | A (protective value ≧80%)
CCCCc1ccc2nc(CCC)c(C)c(OC(C)=O)c2c1 [compound 48] | A (protective value ≧80%)
CCC(C)c1ccc2nc(C)c(C)c(OC(=O)C3CC3)c2c1 (centres unmarked) [compound 57] | A (protective value ≧80%)
CC(=O)Oc1c(C)c(C)nc2c(C)cc(F)cc12 [compound 198] | B (protective value 50 to 79%)
CC(=O)Oc1c(C)c(C)nc2ccc(C(C)(C)C)cc12 [compound 84] | A (protective value ≧80%)
Cc1nc2ccc(C(F)(F)F)cc2c(O)c1C [Compound No. 131] | B (protective value 50 to 79%)
CC(=O)Oc1c(C)c(C)nc2c(C)cc(C)cc12 [Compound No. 262] | B (protective value 50 to 79%)
CC(=O)Oc1c(C)c(C)nc2c(C(C)C)cc(C(C)C)cc12 [Compound No. 274] | A (protective value ≧80%)
CC(=O)Oc1c(C)c(C)nc2c(C)cc(C3CCCC3)cc12 [Compound No. 352, 4-Acetoxy-6-c-pentyl-8-methyl-2,3-dimethylquinoline] | A (protective value ≧80%)
CC(=O)Oc1c(C)c(C)nc2ccc(C)cc12 [Compound No. 2] | B (protective value 50 to 79%)
CCC(C)c1ccc2nc(C)c(C)c(OC(=O)c3ccc(OC)cc3)c2c1 (centres unmarked) [compound 62] | A (protective value ≧80%)
CCC(C)c1ccc2nc(C)c(C)c(OC(=O)Oc3ccc(OC)cc3)c2c1 (centres unmarked) [compound 69] | A (protective value ≧80%)
CCCCc1cc(Br)c2nc(C)c(C)c(O)c2c1 [compound 186] | B (protective value 50 to 79%)
CCc1cccc2nc(C)c(C)c(OC(C)=O)c12 [compound 182] | B (protective value 50 to 79%)
CCc1ccc2nc(C)c(C)c(O)c2c1 [Compound No. 9] | A (protective value ≧80%)

SMILES | rank (control effect, protective value from lesion number)
CC=C(C)c1ccc2nc(C)c(C)c(O)c2c1 [compound 199] | A (protective value ≧80%)
CC=C(C)c1ccc2nc(C)c(C)c(OC(C)=O)c2c1 [compound 200] | A (protective value ≧80%)
CCCCCCc1ccc2nc(C)c(C)c(OC(C)=O)c2c1 [Compound No. 108] | A (protective value ≧80%)
CCCCCCCCc1ccc2nc(C)c(C)c(O)c2c1 [Compound No. 125] | B (protective value 50 to 79%)
CCC(C)c1ccc2nc(C)c(C)c(OC(=O)c3ccc([N+](=O)[O-])cc3)c2c1 (centres unmarked) [compound 171] | B (protective value 50 to 79%)
CCC(C)c1ccc2nc(C)c(C)c(O)c2c1 (centres unmarked) [compound 54] | A (protective value ≧80%)
Cc1nc2ccc(OC(C)C)cc2c(O)c1C [compound 23] | B (protective value 50 to 79%)
Cc1nc2ccc(CC(C)C)cc2c(O)c1C [compound 92] | B (protective value 50 to 79%)
CCC(C)c1ccc2nc(C)c(C)c(OC(=O)C3CCCCC3)c2c1 (centres unmarked) [compound 170] | A (protective value ≧80%)
Cc1nc2c(C)cc(Br)cc2c(O)c1C [compound 190] | B (protective value 50 to 79%)
CCCCc1ccc2nc(CC)c(C)c(OC(C)=O)c2c1 [compound 47] | A (protective value ≧80%)
CCC(C)c1ccc2nc(C)c(C)c(OC(=O)c3ccc(Cl)cc3)c2c1 (centres unmarked) [compound 63] | A (protective value ≧80%)
CCCCc1ccc2nc(CCCC)c(C)c(OC(C)=O)c2c1 [compound 49] | A (protective value ≧80%)
CCCc1ccc2nc(C)c(C)c(OC(C)=O)c2c1 [compound 14] | A (protective value ≧80%)
Cc1nc2ccc(Br)c(C)c2c(O)c1C [compound 191] | A (protective value ≧80%)
Cc1nc2ccc(C(C)(C)C)cc2c(O)c1C [compound 83] | A (protective value ≧80%)
Cc1nc2c(F)cc(Br)cc2c(O)c1C [compound 193] | A (protective value ≧80%)
CCCCOC(=O)Oc1c(C)c(C)nc2ccc(C(C)CC)cc12 (centres unmarked) [compound 179] | A (protective value ≧80%)
Cc1nc2ccc(C3CCCCC3)cc2c(O)c1C [Compound No. 111] | B (protective value 50 to 79%)
CCCc1ccc2nc(C)c(C)c(O)c2c1 [Compound No. 13] | A (protective value ≧80%)
CCCCc1ccc2nc(C)c(CCCC)c(OC(C)=O)c2c1 [compound 46] | A (protective value ≧80%)
CCCCCCCCc1ccc2nc(C)c(C)c(OC(C)=O)c2c1 [Compound No. 126] | A (protective value ≧80%)
CCCCCCCC(=O)Oc1c(C)c(C)nc2ccc(C(C)CC)cc12 (centres unmarked) [compound 180] | A (protective value ≧80%)

same assay, conditions: Pyricularia oryzae, foliar, 144 h, read-out: rank (control effect, protective value from lesion number)

SMILES | pest or weed control at 100 ppm
CCC(C)c1cc(C)c2nc(C)c(C)c(OC(C)=O)c2c1 (centres unmarked) [Compound No. 206, 4-acetoxy-6-s-butyl-2,3,8-trimethylquinoline] | > 80%
CC=C(C)c1cc(F)c2nc(C)c(C)c(OC(C)=O)c2c1 [Compound No. 362, 4-acetoxy-6-(2-buten-2-yl)-8-fluoro-2,3-dimethylquinoline] | > 80%
CCC(C)c1cc(OC)c2nc(C)c(C)c(OC(C)=O)c2c1 (centres unmarked) [Compound No. 220, 4-acetoxy-6-s-butyl-8-methoxy-2,3-dimethylquinoline] | > 80%
CCC(C)c1cc(F)c2nc(C)c(C)c(OC(C)=O)c2c1 (centres unmarked) [Compound No. 212, 4-acetoxy-6-s-butyl-8-fluoro-2,3-dimethylquinoline] | > 80%
CCCCCc1ccc2nc(C)c(C)c(O)c2c1 [Compound No. 97, 4-hydroxy-2,3-dimethyl-6-n-pentyl-quinoline] | 50 to 79%
CCCCCc1ccc2nc(C)c(C)c(OC(C)=O)c2c1 [Compound No. 98, 4-acetoxy-2,3-dimethyl-6-n-pentyl-quinoline] | > 80%
CC=C(C)c1cc(C)c2nc(C)c(C)c(OC(C)=O)c2c1 [Compound No. 360, 4-acetoxy-6-(2-buten-2-yl)-2,3,8-trimethylquinoline] | > 80%

test system: Sphaerotheca fuliginea; test: Test for control effect against powdery mildew of Cucurbitaceae (spray on cucumber seedlings); format: in vivo; settings: 200 ppm spray, cucumber first foliage leaf, 10 days after inoculation
Description: Test for Control Effect Against Powdery Mildew of Cucurbitaceae
A spray liquid comprising a test compound whose concentration was adjusted to be 200 ppm by dilution with water was sprayed to a cucumber grown in a vinyl pot of 3 cm in diameter when its first foliage leaf was developed. The air-dried cucumber seedling was inoculated with a conidium suspension of Sphaerotheca fuliginea. Thereafter, the cucumber seedling was transferred in an air-conditioned greenhouse. 10 Days after the inoculation, the disease severity was observed. The protective value was calculated by comparing the disease severity in a treated area with that in an untreated area. Then, control effect was ranked according to the following criterion.
B; protective value 50 to 79%

SMILES | rank (control effect, protective value from disease severity)
CCOC(=O)Oc1c(C)c(C)nc2ccc(C(C)CC)cc12 (centres unmarked) [compound 66] | A (protective value ≧80%)
CCC(C)c1ccc2nc3c(c(OC(C)=O)c2c1)CCC3 (centres unmarked) [Compound No. 153] | A (protective value ≧80%)
C=CCC(=O)Oc1c(C)c(C)nc2ccc(C(C)CC)cc12 (centres unmarked) [compound 175] | A (protective value ≧80%)
CC(=O)Oc1c(C)c(C)nc2cc(C)c(Br)cc12 [compound 196] | A (protective value ≧80%)
CCC(C)c1ccc2nc(C)c(C)c(OC(=O)N(C)C)c2c1 (centres unmarked) [compound 71] | A (protective value ≧80%)
CCC(C)c1ccc2nc(C)c(C)c(OC(=O)CC(C)C)c2c1 (centres unmarked) [compound 176] | A (protective value ≧80%)
